In patent US8980934B2, “Kinase inhibitors and method of treating cancer with same” (University Health Network, priority 2012, dated 2015) one finds GI50 data, which are given here for 18 compounds.

Some results are limits rather than exact numbers.

Assay in all cases: Cancer cell growth inhibition, Sulforhodamine B assay
Common to all, as to type: cell-based
In general terms: Sulforhodamine B stains cellular protein and so reports cell mass.

Assay [1] deals with HCT116 colon cancer cells. As to conditions: Homo sapiens, HCT-116, 120 h; HCT116, 5 days culture, SRB; read-out: Cancer Cell Line GI50 Range HCT116. The method, then: (§1) Breast cancer cells (MDA-MB-231), colon cancer cells (HCT116) and ovarian cancer cells (PA-1) were seeded (1000 to 4000 in 80 μl per well depending on the cell growth rate) into 96 well plates 24 hours before compound overlay. Compounds were prepared as 10 mM stock solutions in 100% DMSO which were diluted with DMEM (Dulbecco's Modified Eagle's Medium) cell growth Medium (Invitrogen, Burlington, ON, Canada) containing 10% FBS (Fetal Bovine Serum) to concentrations ranging from 50 nM to 250 μM. Aliquots (20 μl) from each concentration were overlaid to 80 μl of the pre-seeded cells in the 96 well plates to make final concentrations of 10 nM to 50 μM. The cells were cultured for 5 days before the Sulforhodamine B assay (SRB) was performed to determine the compound's cell growth inhibition activity.
(§2) Sulforhodamine B (purchased from Sigma, Oakville, ON, Canada) is a water-soluble dye that binds to the basic amino acids of the cellular proteins. Thus, colorimetric measurement of the bound dye provides an estimate of the total protein mass that is related to the cell number. the cells are fixed in situ by gently aspirating off the culture media and adding 50 μl ice cold 10% Trichloroacetic Acid (TCA) per well and incubate at 4° C. for 30-60 min. The plates are washed with H2O five times and allowed to air dry for 5 min. Addition of 50 μl 0.4% (w/v) SRB solution in 1% (v/v) acetic acid to each well and incubatation for 30 min at RT completes the staining reaction. Following staining, plates are washed four times with 1% acetic acid to remove unbound dye and then allowed to air dry for 5 min. The stain is solubilized with 100 μl of 10 mM Tris pH 10.5 per well. Absorbance is read at 570 nm.
(§3) The percentage (%) of relative growth inhibition was calculated by comparing to DMSO treated only cells (100%). GI50's were determined for compounds with cytotoxic activity. The GI50 was calculated using GraphPad PRISM software (GraphPad Software, Inc., San Diego, Calif., USA). GI50 (growth inhibition) is the compound concentration that causes 50% inhibition of cell growth.
(§4) In Table 1 below, GI50 value ranges for several compound examples against breast cancer cell lines (MDA-MB-231), colon cancer cell lines (HCT116) and ovarian cancer cell lines (PA-1) are given. […] The GI50 ranges are indicated as “A,” “B,” and “C,” for values less than or equal to 0.1 μM; those greater than 0.1 μM and less than or equal to 0.5 μM; and those greater than 0.5 μM, respectively.

Assay [2] relates to MDA-MB-231 breast cancer cells. To be noted: Homo sapiens, 120 h; MDA-MB-231, 5 days culture, SRB; read-out: Cancer Cell Line GI50 Range MDA-MB-231. Here is the method: as §1, §2, §3, §4
Assay [3] deals with PA-1 ovarian cancer cells. As to conditions: 120 h; PA-1, 5 days culture, SRB; read-out: Cancer Cell Line GI50 Range PA-1. The method, then:
as §1, §2, §3, §4

Broadly, the GI50 is the concentration at which growth is held to half of that of the control. Turning to `O=C(NC(c1ccccn1)C1CC1)c1ccc2[nH]nc(-c3ccc(N4CCC5(COC5)C4)cc3)c2c1` (stereo not drawn) [Example A16, 3-(4-(2-Oxa-6-azaspiro[3.4]octan-6-yl)phenyl)-N-(cyclopropyl(pyridin-2-yl)methyl)-1H-indazole-5-carboxamide], the GI50 in assay [1], in assay [2] and in assay [3] was 0.1 to 0.5 µM in each case.
Consider `O=C(N[C@H](c1ccccn1)C1CCCC1)c1ccc2[nH]nc(-c3ccc(N4CC5(C4)CN(C4COC4)C5)cc3)c2c1` [Example A31, (S)-N-(Cyclopentyl(pyridin-2-yl)methyl)-3-(4-(6-(oxetan-3-yl)-2,6-diazaspiro[3.3]heptan-2-yl)phenyl)-1H-indazole-5-carboxamide], for which the GI50 in assay [1], in assay [2] and in assay [3] was no more than 0.1 µM each time.
As to `O=C(N[C@@H](c1ncccn1)C1CCCC1)c1ccc2[nH]nc(-c3ccc(N4CC5(COC5)C4)cc3)c2c1` [Example A26, (R)-3-(4-(2-oxa-6-azaspiro[3.3]heptan-6-yl)phenyl)-N-(cyclopentyl(pyrimidin-2-yl)methyl)-1H-indazole-5-carboxamide], the concentration for 50% growth inhibition (GI50) in assay [1], in assay [2] and in assay [3] was no more than 0.1 µM in each case.
Turning to `O=C(N[C@H](c1ccccc1)C1CC1)c1ccc2[nH]nc(-c3ccc(N4CC5(CCOCC5)C4)cc3)c2c1` [Example A17, (S)-3-(4-(7-Oxa-2-azaspiro[3.5]nonan-2-yl)phenyl)-N-(cyclopropyl(phenyl)methyl)-1H-indazole-5-carboxamide], the GI50 in assay [1], in assay [2] and in assay [3] was 0.1 to 0.5 µM each time.
For `O=C(NC(c1nccs1)C1CC1)c1ccc2[nH]nc(-c3ccc(N4CC5(COC5)C4)cc3)c2c1` (stereo not drawn) [Example A14, 3-(4-(2-Oxa-6-azaspiro[3.3]heptan-6-yl)phenyl)-N-(cyclopropyl(thiazol-2-yl)methyl)-1H-indazole-5-carboxamide], the concentration for 50% growth inhibition (GI50) in assay [1], in assay [2] and in assay [3] was no more than 0.1 µM each time.
Regarding `CC(C)C[C@H](NC(=O)c1ccc2[nH]nc(-c3ccc(N4CC5(COC5)C4)cc3)c2c1)c1ccccn1` [Example A27, (S)-3-(4-(2-oxa-6-azaspiro[3.3]heptan-6-yl)phenyl)-N-(3-methyl-1-(pyridin-2-yl)butyl)-1H-indazole-5-carboxamide], the GI50 in assay [1], in assay [2] and in assay [3] was no more than 0.1 µM each time.
With `O=C(N[C@@H](c1ccsc1)C1CCCC1)c1ccc2[nH]nc(-c3ccc(N4CC5(COC5)C4)cc3)c2c1` [Example A9, 3-(4-(2-Oxa-6-azaspiro[3.3]heptan-6-yl)phenyl)-N-((R)-cyclopentyl(thiophen-3-yl)methyl)-1H-indazole-5-carboxamide], the GI50 was 0.1 to 0.5 µM in assay [1], greater than 0.5 µM in assay [2] and 0.1 to 0.5 µM in assay [3].
For the compound `O=C(N[C@@H](c1ccccn1)C1CC1)c1ccc2[nH]nc(-c3ccc(N4CC5(CCO5)C4)cc3)c2c1` [Example A22, (R)-3-(4-(1-Oxa-6-azaspiro[3.3]heptan-6-yl)phenyl)-N-(cyclopropyl(pyridin-2-yl)methyl)-1H-indazole-5-carboxamide], the GI50 in assay [1], in assay [2] and in assay [3] was no more than 0.1 µM each time.
Consider `CC(C)C[C@H](NC(=O)c1ccc2[nH]nc(-c3ccc(N4CCC45COC5)cc3)c2c1)c1ccccn1` [Example A35, (S)-3-(4-(6-Oxa-1-azaspiro[3.3]heptan-1-yl)phenyl)-N-(3-methyl-1-(pyridin-2-yl)butyl)-1H-indazole-5-carboxamide], for which the GI50 in assay [1], in assay [2] and in assay [3] was 0.1 to 0.5 µM each time.
As to `CN1CC2(C1)CN(c1ccc(-c3n[nH]c4ccc(C(=O)N[C@H](c5ccccc5)C5CC5)cc34)cc1)C2` [Example A29, (S)-N-(Cyclopropyl(phenyl)methyl)-3-(4-(6-methyl-2,6-diazaspiro[3.3]heptan-2-yl)phenyl)-1H-indazole-5-carboxamide], the GI50 in assay [1], in assay [2] and in assay [3] was no more than 0.1 µM each time.
As to `O=C(N[C@@H](c1ncccn1)C1CCCC1)c1ccc2[nH]nc(-c3ccc(N4CCC45COC5)cc3)c2c1` [Example A37, (R)-3-(4-(6-oxa-1-azaspiro[3.3]heptan-1-yl)phenyl)-N-(cyclopentyl(pyrimidin-2-yl)methyl)-1H-indazole-5-carboxamide], the GI50 in assay [1], in assay [2] and in assay [3] was no more than 0.1 µM each time.
With `CC(C)[C@H](NC(=O)c1ccc2[nH]nc(-c3ccc(N4CC5(C4)CN(C4COC4)C5)cc3)c2c1)c1ccccc1Cl` [Example A30, (S)-N-(1-(2-Chlorophenyl)-2-methylpropyl)-3-(4-(6-(oxetan-3-yl)-2,6-diazaspiro[3.3]heptan-2-yl)phenyl)-1H-indazole-5-carboxamide], the GI50 in assay [1], in assay [2] and in assay [3] was no more than 0.1 µM each time.
Regarding `O=C(N[C@H](c1ccccn1)C1CCCC1)c1ccc2[nH]nc(-c3ccc(N4CCC45COC5)cc3)c2c1` [Example A34, (S)-3-(4-(6-Oxa-1-azaspiro[3.3]heptan-1-yl)phenyl)-N-(cyclopentyl(pyridin-2-yl)methyl)-1H-indazole-5-carboxamide], the GI50 in assay [1], in assay [2] and in assay [3] was 0.1 to 0.5 µM each time.
`O=C(N[C@H](c1ccccn1)C1CCCC1)c1ccc2[nH]nc(-c3ccc(N4CC5(CC(O)C5)C4)cc3)c2c1` [Example A33, (S)-N-(Cyclopentyl(pyridin-2-yl)methyl)-3-(4-(6-hydroxy-2-azaspiro[3.3]heptan-2-yl)phenyl)-1H-indazole-5-carboxamide]: the GI50 in assay [1], in assay [2] and in assay [3] was no more than 0.1 µM in each case.
Regarding `O=C(N[C@H](c1ccccn1)C1CC1)c1ccc2[nH]nc(-c3ccc(N4CC5(CCO5)C4)cc3)c2c1` [Example A21, (S)-3-(4-(1-Oxa-6-azaspiro[3.3]heptan-6-yl)phenyl)-N-(cyclopropyl(pyridin-2-yl)methyl)-1H-indazole-5-carboxamide], the GI50 in assay [1], in assay [2] and in assay [3] was no more than 0.1 µM throughout.
With `O=C(N[C@H](c1ncccn1)C1CCCC1)c1ccc2[nH]nc(-c3ccc(N4CC5(COC5)C4)cc3)c2c1` [Example A25, (S)-3-(4-(2-oxa-6-azaspiro[3.3]heptan-6-yl)phenyl)-N-(cyclopentyl(pyrimidin-2-yl)methyl)-1H-indazole-5-carboxamide], the GI50 in assay [1], in assay [2] and in assay [3] was no more than 0.1 µM throughout.
On to `CC(C)[C@@H](NC(=O)c1ccc2[nH]nc(-c3ccc(N4CC5(COC5)C4)cc3)c2c1)c1ccccc1Cl` [Example A13, 3-(4-(2-Oxa-6-azaspiro[3.3]heptan-6-yl)phenyl)-N-((R)-1-(2-chlorophenyl)-2-methylpropyl)-1H-indazole-5-carboxamide], for which the GI50 in assay [1] is no more than 0.1 µM; in assay [2] it was 0.1 to 0.5 µM; in assay [3] it was no more than 0.1 µM.
As to `CC(C)[C@H](NC(=O)c1ccc2[nH]nc(-c3ccc(N4CC5(CN(C)C5)C4)cc3)c2c1)c1ccccc1Cl` [Example A28, (S)-N-(1-(2-Chlorophenyl)-2-methylpropyl)-3-(4-(6-methyl-2,6-diazaspiro[3.3]heptan-2-yl)phenyl)-1H-indazole-5-carboxamide], the GI50 in assay [1], in assay [2] and in assay [3] was no more than 0.1 µM in each case.
